Tests used:
[1] = system: MSC/N2a/HCEC; assay: Intracellular release of NO, stated jointly for MSC/N2a/HCEC; type: cell-based
Procedure: (§1) Intracellular release of NO by DNIC–COOH was validated using the fluorescence probe 4-amino-5-methylamino-2′,7′-difluorofluorescein diacetate (DAF-FM) in combination with fluorescence analysis techniques. Briefly, the MSC cells (or N2a and HCEC cells) were seeded onto a 96-well black plate at a density of 6 × 10^3 cells/well (or 1 × 10^4 cells/well for N2a and 8 × 10^3 cells/well for HCEC cells) and incubated at 37 °C overnight. On the next day, the MSC cells were first treated with 10 μM of DAF-FM (or 5 μM for N2a and HCEC cells) and incubated at 37 °C for 0.5 h. […] Fluorescence intensity of the cells was then recorded using a microplate reader (SpectraMax iD3, Molecular Devices, San Jose, CA) with an excitation wavelength at 485 nm and an emission wavelength at 525 nm. Three independent experiments were executed to measure the time-dependent change of average fluorescence intensity. Time-dependent change of average fluorescence intensity for the MSC/N2a/HCEC cells with sequential treatment of DAF-FM (10 μM for MSC cells, 5 μM for N2a cells, 5 μM for HCEC cells; 0.5 h) and DNIC–COOMe (2.5 μM for MSC cells, 10 μM for N2a cells, 1 μM for HCEC cells) was determined in a similar manner.

[2] = system: N2a; assay: Intracellular release of NO (DAF-FM fluorescence) in N2a; type: cell-based, mouse; details: 100 μM DNIC–COOH or 10 μM DNIC–COOMe
Procedure: as §1, with “manner. […]” for “manner.”

[3] = system: HO-1 protein; assay: ELISA of intracellular HO-1 protein in MSC; type: cell-based, human
Procedure: After the treatments of DNIC–COOH/DNIC–COOMe to the MSC cells following the procedure described above, the intracellular level of HO-1 protein in DNIC-treated MSC cells was also determined by ELISA (Abcam, Cambridge, MA) according to the manufacturers’ protocols.

[4] = Log D7.4 / Log P by n-octanol partitioning (UV–vis); type: physicochemical; details: for Log D7.4: PBS (pH 7.4)/n-octanol
Procedure: PBS (pH 7.4) and n-octanol were fully degassed before use. After adding 20 μL of 100 mM stock solution of DNIC–COOH in DMSO to 19.98 mL of PBS (pH 7.4), 2 mL of this 100 μM DNIC–COOH solution was added with 2 mL of n-octanol. This mixture solution was vortexed thoroughly for 30 s and incubated until the two solutions were separated. UV–vis spectra of DNIC–COOH in PBS (pH 7.4) and n-octanol were measured in order to determine Log D7.4 using the equation shown below:[96] [drawing 1] AO is the A362 in n-octanol, and APBS is the A362 in PBS (pH 7.4) after partitioning. Log D7.4 for DNIC–COOMe was determined in a similar manner. On the other hand, the Log P value for DNIC–COOH was measured based on its distribution in ddH2O and n-octanol using a similar procedure.[97],[98]

[5] = target: T1, BSA (Bos taurus, UniProt P02769); assay: Formation and degradation of albumin-bound DNIC in cell culturing media with FBS (EPR); type: in vitro ADME, bovine
T1 construct: 2 mL of αMEM with the presence of 20% FBS; from tissue; host or cells: fetal bovine serum (FBS) in αMEM / MEM / HSFM culture media
T1 sequence (P02769 25-607): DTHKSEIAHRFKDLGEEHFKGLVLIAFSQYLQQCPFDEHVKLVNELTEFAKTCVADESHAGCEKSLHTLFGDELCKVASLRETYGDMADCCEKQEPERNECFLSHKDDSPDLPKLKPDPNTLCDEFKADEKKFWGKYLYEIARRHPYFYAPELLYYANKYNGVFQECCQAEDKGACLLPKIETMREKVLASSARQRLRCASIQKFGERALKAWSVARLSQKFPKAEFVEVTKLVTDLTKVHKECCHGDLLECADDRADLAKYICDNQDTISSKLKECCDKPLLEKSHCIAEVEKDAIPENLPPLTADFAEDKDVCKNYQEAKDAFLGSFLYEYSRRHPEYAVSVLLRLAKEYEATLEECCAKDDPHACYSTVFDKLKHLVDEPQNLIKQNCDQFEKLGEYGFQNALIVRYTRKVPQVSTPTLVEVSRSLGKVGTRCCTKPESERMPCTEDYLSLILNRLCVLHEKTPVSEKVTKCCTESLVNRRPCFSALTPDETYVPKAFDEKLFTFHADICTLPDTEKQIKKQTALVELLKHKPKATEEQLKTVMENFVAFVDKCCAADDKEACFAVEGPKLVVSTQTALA
Procedure: 50 μM of DNIC–COOH was prepared via addition of 1 μL of 100 mM stock solution of DNIC–COOH in DMSO to 2 mL of αMEM with the presence of 20% FBS. After this solution was incubated at 37 °C for 0, 0.5, 1, 2, 3, 4, 8, and 24 h, respectively, EPR spectra of 100 μL aliquots of this solution were measured. Moreover, double integration of the EPR signal was executed to obtain the integrated EPR signal intensity under each condition, which was further utilized to characterize the time-dependent formation and degradation of BSA-bound DNIC. EPR investigations on the formation and degradation of protein-bound DNICs upon incubation of (1) 50 μM DNIC–COOMe in αMEM with the presence of 20% FBS, (2) 50 μM DNIC–COOH (or DNIC–COOMe) in MEM with the presence of 5% FBS, and (3) 50 μM DNIC–COOH (or DNIC–COOMe) in HSFM with the presence of 2% FBS were performed in a similar manner. In addition, EPR spectra for 50 μM of DNIC–COOH (or 50 μM of DNIC–COOMe) in αMEM, MEM, and HSFM, respectively, were also measured.

SMILES: COC(=O)CC[SH]1[Fe]([N]=O)([N]=O)[SH](CCC(=O)OC)[Fe]1([N]=O)[N]=O (centres unmarked) [DNIC–COOMe, [(NO)2Fe(μ-SCH2CH2COOCH3)2Fe(NO)2]]
- tmax for intracellular release of free NO [1]: 1 to 2 h
- tmax for intracellular release of NO [2]: 2 h
- expression of HO-1 protein ([3]; at 6 h, 2.5 μM DNIC–COOMe): 8.1 ± 0.9 fold
- Log D7.4 [4]: 1.0
- binding to BSA yielding albumin-bound DNIC [5]: rapid binding

SMILES: O=[N][Fe]1([N]=O)[SH](CCC(=O)O)[Fe]([N]=O)([N]=O)[SH]1CCC(=O)O (centres unmarked) [DNIC–COOH, [(NO)2Fe(μ-SCH2CH2COOH)2Fe(NO)2]]
- tmax for intracellular release of free NO [1]: 4 to 6 h
- tmax for intracellular release of NO [2]: 4 h
- expression of HO-1 protein ([3]; at 8 h, 100 μM DNIC–COOH): 32.0 ± 4.4 fold
- Log D7.4 [4]: −2.3
- Log P ([4]; ddH2O/n-octanol): 1.2
- binding to BSA yielding albumin-bound DNIC [5]: slow binding

Source: PMC11040670, “Mechanistic and Kinetic Insights into Cellular Uptake of Biomimetic Dinitrosyl Iron Complexes and Intracellular Delivery of NO for Activation of Cytoprotective HO-1” (JACS Au, 2024)
